Measurements published in the NIST ThermoML archive (doi:10.1016/j.fluid.2013.12.002).
Numbers after ± are expanded uncertainties. Each block holds one compound with its values, some of them ahead of it.

Conditions: Liquid, Ebulliometric method (Recirculating still)

SMILES: O=CC=Cc1ccccc1 [(E)-3-phenyl-2-propanal]
vapor or sublimation pressure (442.84 K): 10 ± 0.15 kPa | vapor or sublimation pressure (463.15 K): 20 ± 0.33 kPa | vapor or sublimation pressure (475.83 K): 30 ± 0.49 kPa

SMILES: O=Cc1ccccc1 [benzaldehyde]
vapor or sublimation pressure (377.63 K): 10 ± 0.15 kPa | vapor or sublimation pressure (396.65 K): 20 ± 0.31 kPa | vapor or sublimation pressure (408.67 K): 30 ± 0.45 kPa

vapor or sublimation pressure (353.26 K): 101.33 ± 1.4 kPa
SMILES: c1ccccc1 [benzene]

SMILES: Cc1ccccc1 [toluene]
vapor or sublimation pressure (383.81 K): 101.33 ± 1.4 kPa
